In US20240238218A1, “[…] A […] ACTIVE COMPOUND AND METHOD OF PREPARATION THEREOF” (GW Research Limited, priority 2021, published 2024):

Experiments:
[1] = system: mouse model of generalised seizure (tonic hind limb extensor convulsions); test: mini-MEST (maximal electroshock seizure threshold, minimal sample sizes) test in the mouse; conditions: 2.5 mg/kg i.p., 30 min post dose
Description: The maximal electroshock seizure threshold (MEST) test is widely utilized preclinically to evaluate pro- or anti-convulsant properties of test compounds (Loscher et al., 1991).
(§1) In the MEST test the ability of a drug to alter the seizure threshold current required to induce hind limb tonic extensor convulsions is measured according to an “up and down” method of shock titration (Kimball et al., 1957). An increase in seizure threshold is indicative of anti-convulsant effect.
(§2) The ability of a test compound to alter the stimulus intensity, expressed as current (mA), required to induce the presence of tonic hind limb extensor convulsions, is assessed in the MEST.
(§3) All animals were weighed at the beginning of the study and randomly assigned to treatment groups based on a mean distribution of body weight across groups.
The first animal within a treatment group was given a shock at the expected or estimated CC50 current. For subsequent animals, the current was lowered or raised depending on the convulsions outcome from the preceding animal in log scale intervals.
(§4) Data generated from each treatment group were used to calculate the CC50±SEM values for the treatment group.
Vehicle: (5% ethanol, 10% solutol in 85% Saline) was prepared as follows: 1 mL of ethanol, 2 mL of solutol were warmed to 60° C., in 17 mL of saline (1:2:17).
The test compound, described herein as Compound I, is as shown as Formula I. Test compound was administered at 50 mg/kg (i.p.) in a 1:2:17 ethanol:solutol:0.9% saline formulation.
(§5) The data for each treatment group were recorded as the number of +'s and 0's at each current level employed and this information is then used to calculate the CC50 value (current required for 50% of the animals to show seizure behaviour)±standard error.
(§6) Test compound effects were also calculated as percentage change in CC50 from the vehicle control group.
(§7) Significant difference between drug-treated animals and controls were assessed according to Litchfield and Wilcoxon (1949).

[2] = system: mouse model of generalised seizure (tonic hind limb extensor convulsions); test: Maximal electroshock seizure threshold (MEST) test in the mouse; conditions: 2.5 mg/kg i.p., 30 min post dose
Description: The efficacy of the novel resorcinol according to the compound of Formula I was tested in a mouse model of generalised seizure, the maximal electroshock seizure threshold (MEST) test.
as §1, §2, §3
The first animal within a treatment group was given a shock at the expected or estimated CC50 current. For subsequent animals, the current was lowered or raised depending on the convulsions outcome from the preceding animal, in intervals of 5 mA.
as §4
Vehicle: (5% ethanol, 5% Kolliphor® EL, 90% Saline) was prepared as follows: 2 mL of ethanol, 2 mL of Kolliphor® EL were warmed to 60° C., in 36 mL of saline (1:1:18).
The test compound, described herein as Compound I, is as shown as Formula I. Test compound was administered at 1, 5, 20, 50, 100 and 200 mg/kg (i.p.) in a 1:2:17 ethanol:solutol:0.9% saline formulation.
as §5, §6, §7

RjOrl: Swiss mice = test: Mouse 6 Hz (44 mA) psychomotor seizure test; type: in vivo; conditions: 300 mg/kg i.p.
Description: The 6 Hz Psychomotor Test, which detects anticonvulsant activity, follows that described by Brown et al. (J. Pharmacol. Exp. Ther. 107, 273-283, 1953).
Male RjOrl: Swiss mice, 5 weeks old, weighing 28-38 g at the beginning of the experiment. Animals were acclimatized to the test facility for at least 5 days after delivery and randomly housed in groups of 3-4 in macrolon cages on wood litter with free access to food and water.
Before transcorneal stimulation, a drop of tetracaine solution (2%) was applied on each eye of the mouse for local anesthesia. Between 1-10 minutes later, at the pre-treatment time specified for the test compound, the mice were administered a rectangular current (44 mA, rectangular pulse: 0.2 ms pulse width, 3 s duration, 6 Hz) via corneal electrodes connected to a constant current shock generator.
The number of seizures as reflected by forelimb clonus were recorded immediately after current administration. Forelimb clonus was scored as absent (0=no forelimb clonus), mild (1=clonus with one forelimb) and strong (2=clonus with both forelimbs).
[…] The experimenters were blinded to the treatment. The cages were randomly assigned to a treatment code, each designating one treatment group.
Compound I was administered intraperitoneally at 20 and 50 mg/kg, 30 minutes before the test, and at 100 and 200 mg/kg, 60 minutes before the test and were compared with the vehicle control (5% ethanol, 10% […], 85% physiological saline).
Valproate (300 mg/kg i.p.), administered 30 minutes before the test, was used as reference substance and was compared with the vehicle control (5% ethanol, 10% Kolliphor HS15, 85% physiological saline).
(§8) Test compound: Compound I dissolved in 5% ethanol, 10% Kolliphor HS15, 85% physiological saline.
(§9) Vehicle control: 5% ethanol, 10% Kolliphor HS15, 85% physiological saline.
Reference: Valproate (300 mg/kg), dissolved in 5% ethanol, 10% Kolliphor HS15, 85% physiological saline.
Data were assumed to be non-normally distributed based on validation data, therefore non-parametric tests were utilized. Quantitative data (scores) with the test substance were analyzed by comparing treated groups with the corresponding vehicle control using Kruskal-Wallis test with Dunn's multiple comparisons test when the Kruskal-Wallis Test was significant. Quantitative data with the reference substance was analysed using Mann-Whitney U test.

DBA/2 mice = test: DBA/2 mouse audiogenic seizure test; type: in vivo; conditions: 180 mg/kg i.p.
Description: The DBA/2 audiogenic seizure test, which detects anticonvulsant activity, follows that described by Dürmüller et al. (NeuroReport, vol. 4, no. 6, pages 683-686, 1993).
60 male DBA/2 mice (3-4 weeks old) were included in the experiment (weight range 8-11 g at the beginning of the experiment). Animals were acclimatized to the test facility for 1 day after delivery and randomly housed in groups of 5 in macrolon cages on wood litter with free access to food and water.
Mice were individually transferred (at 3-5 minutes intervals) from the preparation room into an adjacent experimental room and body temperature was measured using a rectal thermometer. Immediately after, they were placed in a Plexiglas jar (Diameter=40 cm; Height=35 cm) mounted with an electric bell. Upon activating the bell, the occurrences and latencies to wild running fits, clonic and tonic seizures were measured. Deaths were also recorded. The bell was activated until a tonic seizure occured or for a maximum of 60 seconds.
The experiment included 6 groups (10 mice were studied per group). Experimenters were blinded to the treatment groups.
The test substance was evaluated at 4 doses, administered i.p. (10 mL/kg) 30 or 60 minutes before the test, and compared with a vehicle control group. Doses and pre-treatment times were based on previous pharmacokinetic data.
as §8, §9
Reference: Valproate (180 mg/kg), dissolved in 5% ethanol, 10% Kolliphor HS15, 85% physiological saline.
Quantitative data (latencies) with the test substance were analyzed by comparing treated groups with vehicle control using Kruskal-Wallis test followed by Dunn's multiple comparisons test. Quantitative data with the reference substance were analyzed using Mann-Whitney U test.
Quantal data (frequencies) were analyzed by comparing treated groups with vehicle control using Fisher's Exact Probability tests.

[3] = 30 min before the test, bell maximum 60 seconds
[4] = 30 min before the test, listed as valproate

## CN1C(=O)CN=C(c2ccccc2)c2cc(Cl)ccc21 [Diazepam, diazepam, reference compound]
[1]
  % change from vehicle (CC50): 279%
[2]
  % change from vehicle (CC50): 449%

## CCCC(CCC)C(=O)O [Valproate, reference compound]
RjOrl: Swiss mice
  Slight sedation (mice affected): One mouse out of the 15 tested
RjOrl: Swiss mice; 30 minutes before the test
  Forelimb clonus, Compared with Vehicle B (i.p.) %: −88%
RjOrl: Swiss mice; 30 minutes before the test, listed as valproate
  Forelimb clonus, Compared with Vehicle B (i.p.) %: −88%
RjOrl: Swiss mice; 30 minutes before the test, score 0-2
  Forelimb clonus (mean ± s.e.m.): 0.1 ± 0.1
DBA/2 mice
  Adverse signs: No adverse signs were noted
DBA/2 mice; 30 min before the test
  Clonic convulsion, Presence, %: 0%
  Clonic convulsion, Presence, Compared with Vehicle (i.p.) %: −100%
  Clonic convulsion, Presence, Total: 0/10
  Death, Presence, %: 0%
  Death, Presence, Compared with Vehicle (i.p.) %: −100%
  Death, Presence, Total: 0/10
  Tonic extension, Presence, %: 0%
  Tonic extension, Presence, Compared with Vehicle (i.p.) %: −100%
  Tonic extension, Presence, Total: 0/10
  Wild running, Presence, %: 0%
  Wild running, Presence, Compared with Vehicle (i.p.) %: −100%
  Wild running, Presence, Total: 0/10
DBA/2 mice; [3]
  Clonic convulsion, Latency (s) Median: 60.0 s
  Tonic extension, Latency (s) Median: 60.0 s
  Wild running, Latency (s) Median: 60.0 s
DBA/2 mice; [4]
  Clonic convulsion, Presence, Compared with Vehicle (i.p.) %: −100%
  Tonic extension, Presence, Compared with Vehicle (i.p.) %: −100%
  Wild running, Presence, Compared with Vehicle (i.p.) %: −100%
